Activity calls are given as the source filed them.
How the values were obtained:
Elatine triandra [1] = assay: Pre-emergence herbicidal activity against Elatine triandra at 2000 g a.i/ha measured after 14 days; format: functional, organism-based
[2] = tested on: Schoenoplectiella juncoides; assay: Pre-emergence herbicidal activity against Schoenoplectiella juncoides at 2000 g a.i/ha measured after 14 days; format: functional, organism-based
Lindernia procumbens [3] = assay: Post-emergence herbicidal activity against Lindernia procumbens assessed as bleaching of stem/leaf parts; format: functional, organism-based; further: test concentration or dose not given here
Cyperus difformis [4] = assay: Pre-emergence herbicidal activity against Cyperus difformis at 2000 g a.i/ha measured after 14 days; format: functional, organism-based
Ammannia multiflora [5] = assay: Pre-emergence herbicidal activity against Ammannia multiflora assessed as bleaching of stem/leaf parts; format: functional, organism-based
Ammannia multiflora [6] = assay: Pre-emergence herbicidal activity against Ammannia multiflora at 2000 g a.i/ha measured after 14 days; format: functional, organism-based
Elatine triandra [7] = assay: Post-emergence herbicidal activity against Elatine triandra assessed as bleaching of stem/leaf parts; format: functional, organism-based; further: test concentration or dose not given here
Lindernia procumbens [8] = assay: Pre-emergence herbicidal activity against Lindernia procumbens assessed as bleaching of stem/leaf parts; format: functional, organism-based
Cyperus difformis [9] = assay: Pre-emergence herbicidal activity against Cyperus difformis assessed as bleaching of stem/leaf parts; format: functional, organism-based
Oryza sativa [10] = assay: Phytotoxicity against Oryza sativa cv. Koshihikari (rice) at 2000 g a.i/ha measured after 14 days; format: organism-based; conditions: in vivo, 336 h
Rotala indica [11] = assay: Pre-emergence herbicidal activity against Rotala indica assessed as bleaching of stem/leaf parts; format: functional, organism-based
Rotala indica [12] = assay: Pre-emergence herbicidal activity against Rotala indica at 2000 g a.i/ha measured after 14 days; format: functional, organism-based
Echinochloa oryzicola [13] = assay: Pre-emergence herbicidal activity against Echinochloa oryzicola assessed as bleaching of stem/leaf parts; format: functional, organism-based
Cyperus difformis [14] = assay: Post-emergence herbicidal activity against Cyperus difformis assessed as bleaching of stem/leaf parts; format: functional, organism-based; further: test concentration or dose not given here
Ammannia multiflora [15] = assay: Post-emergence herbicidal activity against Ammannia multiflora assessed as bleaching of stem/leaf parts; format: functional, organism-based; further: test concentration or dose not given here
[16] = tested on: Schoenoplectiella juncoides; assay: Post-emergence herbicidal activity against Schoenoplectiella juncoides assessed as bleaching of stem/leaf parts; format: functional, organism-based; further: test concentration or dose not given here
Rotala indica [17] = assay: Post-emergence herbicidal activity against Rotala indica assessed as bleaching of stem/leaf parts; format: functional, organism-based; further: test concentration or dose not given here
Elatine triandra [18] = assay: Pre-emergence herbicidal activity against Elatine triandra assessed as bleaching of stem/leaf parts; format: functional, organism-based
Eleocharis acicularis [19] = assay: Pre-emergence herbicidal activity against Eleocharis acicularis assessed as bleaching of stem/leaf parts; format: functional, organism-based
Pontederia vaginalis [20] = assay: Post-emergence herbicidal activity against Monochoria vaginalis assessed as bleaching of stem/leaf parts; format: functional, organism-based; further: test concentration or dose not given here
Echinochloa oryzicola [21] = assay: Pre-emergence herbicidal activity against Echinochloa oryzicola at 2000 g a.i/ha measured after 14 days; format: functional, organism-based
[22] = tested on: Schoenoplectiella juncoides; assay: Pre-emergence herbicidal activity against Schoenoplectiella juncoides assessed as bleaching of stem/leaf parts; format: functional, organism-based
Pontederia vaginalis [23] = assay: Pre-emergence herbicidal activity against Monochoria vaginalis assessed as bleaching of stem/leaf parts; format: functional, organism-based
Echinochloa oryzicola [24] = assay: Post-emergence herbicidal activity against Echinochloa oryzicola assessed as bleaching of stem/leaf parts; format: functional, organism-based; further: test concentration or dose not given here
Lindernia procumbens [25] = assay: Pre-emergence herbicidal activity against Lindernia procumbens at 2000 g a.i/ha measured after 14 days; format: functional, organism-based
Pontederia vaginalis [26] = assay: Pre-emergence herbicidal activity against Monochoria vaginalis at 2000 g a.i/ha measured after 14 days; format: functional, organism-based
Eleocharis acicularis [27] = assay: Post-emergence herbicidal activity against Eleocharis acicularis assessed as bleaching of stem/leaf parts; format: functional, organism-based; further: test concentration or dose not given here
Eleocharis acicularis [28] = assay: Pre-emergence herbicidal activity against Eleocharis acicularis at 2000 g a.i/ha measured after 14 days; format: functional, organism-based
[29] = tested on: Schoenoplectiella juncoides; assay: Pre-emergence herbicidal activity against Schoenoplectiella juncoides at 500 g a.i/ha measured after 14 days; format: functional, organism-based
Elatine triandra [30] = assay: Pre-emergence herbicidal activity against Elatine triandra at 500 g a.i/ha measured after 14 days; format: functional, organism-based
Rotala indica [31] = assay: Pre-emergence herbicidal activity against Rotala indica at 500 g a.i/ha measured after 14 days; format: functional, organism-based
Eleocharis acicularis [32] = assay: Pre-emergence herbicidal activity against Eleocharis acicularis at 100 g a.i/ha measured after 14 days; format: functional, organism-based
Pontederia vaginalis [33] = assay: Pre-emergence herbicidal activity against Monochoria vaginalis at 100 g a.i/ha measured after 14 days; format: functional, organism-based
[34] = tested on: Schoenoplectiella juncoides; assay: Pre-emergence herbicidal activity against Schoenoplectiella juncoides at 100 g a.i/ha measured after 14 days; format: functional, organism-based
Elatine triandra [35] = assay: Pre-emergence herbicidal activity against Elatine triandra at 100 g a.i/ha measured after 14 days; format: functional, organism-based
Ammannia multiflora [36] = assay: Pre-emergence herbicidal activity against Ammannia multiflora at 500 g a.i/ha measured after 14 days; format: functional, organism-based
Cyperus difformis [37] = assay: Pre-emergence herbicidal activity against Cyperus difformis at 500 g a.i/ha measured after 14 days; format: functional, organism-based
Eleocharis acicularis [38] = assay: Pre-emergence herbicidal activity against Eleocharis acicularis at 500 g a.i/ha measured after 14 days; format: functional, organism-based
Ammannia multiflora [39] = assay: Pre-emergence herbicidal activity against Ammannia multiflora at 100 g a.i/ha measured after 14 days; format: functional, organism-based
Oryza sativa [40] = assay: Phytotoxicity against Oryza sativa cv. Koshihikari (rice) at 500 g a.i/ha measured after 14 days; format: organism-based; conditions: in vivo, 336 h
Lindernia procumbens [41] = assay: Pre-emergence herbicidal activity against Lindernia procumbens at 100 g a.i/ha measured after 14 days; format: functional, organism-based
Oryza sativa [42] = assay: Phytotoxicity against Oryza sativa cv. Koshihikari (rice) at 100 g a.i/ha measured after 14 days; format: organism-based; conditions: in vivo, 336 h
Rotala indica [43] = assay: Pre-emergence herbicidal activity against Rotala indica at 100 g a.i/ha measured after 14 days; format: functional, organism-based
Cyperus difformis [44] = assay: Pre-emergence herbicidal activity against Cyperus difformis at 100 g a.i/ha measured after 14 days; format: functional, organism-based
Echinochloa oryzicola [45] = assay: Pre-emergence herbicidal activity against Echinochloa oryzicola at 500 g a.i/ha measured after 14 days; format: functional, organism-based
Pontederia vaginalis [46] = assay: Pre-emergence herbicidal activity against Monochoria vaginalis at 500 g a.i/ha measured after 14 days; format: functional, organism-based
Lindernia procumbens [47] = assay: Pre-emergence herbicidal activity against Lindernia procumbens at 500 g a.i/ha measured after 14 days; format: functional, organism-based
Echinochloa oryzicola [48] = assay: Pre-emergence herbicidal activity against Echinochloa oryzicola at 100 g a.i/ha measured after 14 days; format: functional, organism-based

Measured: Activity

CCCN(CC)C(=O)c1cn(C)nc1OCc1cc(Br)cc(Br)c1
inactive: Elatine triandra [1] | [2] | Cyperus difformis [4] | Ammannia multiflora [6] | Rotala indica [12] | Echinochloa oryzicola [21] | Lindernia procumbens [25] | Pontederia vaginalis [26] | Eleocharis acicularis [28]
active: Lindernia procumbens [3] | Ammannia multiflora [5] | Elatine triandra [7] | Lindernia procumbens [8] | Cyperus difformis [9] | Rotala indica [11] | Echinochloa oryzicola [13] | Cyperus difformis [14] | Ammannia multiflora [15] | [16] | Rotala indica [17] | Elatine triandra [18] | Eleocharis acicularis [19] | Pontederia vaginalis [20] | [22] | Pontederia vaginalis [23] | Echinochloa oryzicola [24] | Eleocharis acicularis [27]
Non-toxic: Oryza sativa [10]

CCCN(CC)C(=O)c1cn(C)nc1OCc1cccc(C)c1
Non-toxic: Oryza sativa [10]
inactive: Echinochloa oryzicola [21]
not listed: Eleocharis acicularis [28] | [29] | Elatine triandra [30] | Rotala indica [31] | Eleocharis acicularis [32] | Pontederia vaginalis [33] | [34] | Elatine triandra [35] | Ammannia multiflora [36] | Cyperus difformis [37] | Eleocharis acicularis [38] | Ammannia multiflora [39] | Oryza sativa [40] | Lindernia procumbens [41] | Oryza sativa [42] | Rotala indica [43] | Cyperus difformis [44] | Echinochloa oryzicola [45] | Pontederia vaginalis [46] | Lindernia procumbens [47] | Echinochloa oryzicola [48]
active: all other assays above

Cn1cc(C(=O)NOc2ccccc2Cl)c(OCc2cccc(C(F)(F)F)c2)n1
inactive: [34] | Echinochloa oryzicola [48]
Non-toxic: Oryza sativa [40] | Oryza sativa [42]
not listed: Elatine triandra [1] | [2] | Cyperus difformis [4] | Ammannia multiflora [6] | Oryza sativa [10] | Rotala indica [12] | Echinochloa oryzicola [21] | Lindernia procumbens [25] | Pontederia vaginalis [26] | Eleocharis acicularis [28]
active: all other assays above

Cn1cc(C(=O)NOc2ccc(F)cc2F)c(OCc2cccc(C(F)(F)F)c2)n1
inactive: [34] | Echinochloa oryzicola [48]
Non-toxic: Oryza sativa [40] | Oryza sativa [42]
not listed: Elatine triandra [1] | [2] | Cyperus difformis [4] | Ammannia multiflora [6] | Oryza sativa [10] | Rotala indica [12] | Echinochloa oryzicola [21] | Lindernia procumbens [25] | Pontederia vaginalis [26] | Eleocharis acicularis [28]
active: all other assays above
